# Test system: Mouse B16 melanoma cells
# Assay: Melanin production inhibition test (quantification of melanin)
# Type: cell-based
# Details: for Inhibitory effect on melanin production: class of minimum non-cytotoxic concentration giving melanin amount 80% or less of solvent group, B16 cells, three days after addition; for Minimum concentration (%): minimum concentration at which an inhibitory effect on melanin production was significantly exhibited in melanoma B16 cells
# Description: A test for melanin production inhibition by the compounds of the formula (1) was conducted. The test method is as follows.
# Melanin Production Inhibition Test
# (1) Inoculation of Cells and Addition of Test Substances
# Mouse B16 melanoma cells were inoculated in a six well plate at 100,000 cells/well. The next day, test substance solutions (solvent: DMSO) were added.
# (3) Quantification of Melanin
# The cells after the cell proliferation test were washed with PBS three times, and then lysed by addition of 200 μL of 1M NaOH to measure an absorbance at 475 nm. Using the value thus measured as a relative value of the melanin amount, a ratio of the melanin amount (%) of the test substance-added group to the test substance-absent group (group in which only the solvent was added) was calculated. The lower the ratio of the melanin amount, the higher the melanin production-inhibitory effect. […] The inhibitory effect on melanin production was evaluated according to the following criteria.
# ⊚: the minimum concentration for inhibition of melanin production was 1 ppm or less.
# ◯: the minimum concentration for inhibition of melanin production was more than 1 ppm and 10 ppm or less.
Compound,Inhibitory effect on melanin production,Minimum concentration (%)
"Cc1cc(C)nc(-n2nc(C)cc2C)n1 [Compound 1, 2-(3,5-dimethylpyrazol-1-yl)-4,6-dimethylpyrimidine]",⊚ (the minimum concentration for inhibition of melanin production was 1 ppm or less),1 × 10^−6%
"Cc1cc(C)nc(-n2nc(C)cc2C)n1.Cl [Compound 2, 2-(3,5-dimethylpyrazol-1-yl)-4,6-dimethylpyrimidine hydrochloride]",⊚ (the minimum concentration for inhibition of melanin production was 1 ppm or less),
CCc1cc(CC)n(-c2nc(C)cc(C)n2)n1 [Compound 3],⊚ (the minimum concentration for inhibition of melanin production was 1 ppm or less),3 × 10^−6%
Cc1cc(C)nc(-n2nc(C)c(C)c2C)n1 [Compound 4],⊚ (the minimum concentration for inhibition of melanin production was 1 ppm or less),3 × 10^−6%
"Cc1cc(C)n(-c2nc(C)c(C)c(C)n2)n1 [Compound 5, 2-(3,5-dimethylpyrazol-1-yl)-4,5,6-trimethylpyrimidine]",⊚ (the minimum concentration for inhibition of melanin production was 1 ppm or less),

# Reference: patent US8324234B2, “Method for inhibiting melanin production and whitening skin with pyrimidylpyrazole compounds or pharmaceutically acceptable salts thereof” (Shiseido Company Ltd., priority 2008, dated 2012)
